The values below are quoted from earlier work in patent US20130338178A1, “SIRTUIN MODULATORS AS INHIBITORS OF CYTOMEGALOVIRUS” (THE TRUSTEES OF PRINCETON UNIVERSITY, priority 2011, published 2013).

Series [1] deals with T1, SIRT1 (Homo sapiens, UniProt Q96EB6).
T1 sequence (Q96EB6 1-747): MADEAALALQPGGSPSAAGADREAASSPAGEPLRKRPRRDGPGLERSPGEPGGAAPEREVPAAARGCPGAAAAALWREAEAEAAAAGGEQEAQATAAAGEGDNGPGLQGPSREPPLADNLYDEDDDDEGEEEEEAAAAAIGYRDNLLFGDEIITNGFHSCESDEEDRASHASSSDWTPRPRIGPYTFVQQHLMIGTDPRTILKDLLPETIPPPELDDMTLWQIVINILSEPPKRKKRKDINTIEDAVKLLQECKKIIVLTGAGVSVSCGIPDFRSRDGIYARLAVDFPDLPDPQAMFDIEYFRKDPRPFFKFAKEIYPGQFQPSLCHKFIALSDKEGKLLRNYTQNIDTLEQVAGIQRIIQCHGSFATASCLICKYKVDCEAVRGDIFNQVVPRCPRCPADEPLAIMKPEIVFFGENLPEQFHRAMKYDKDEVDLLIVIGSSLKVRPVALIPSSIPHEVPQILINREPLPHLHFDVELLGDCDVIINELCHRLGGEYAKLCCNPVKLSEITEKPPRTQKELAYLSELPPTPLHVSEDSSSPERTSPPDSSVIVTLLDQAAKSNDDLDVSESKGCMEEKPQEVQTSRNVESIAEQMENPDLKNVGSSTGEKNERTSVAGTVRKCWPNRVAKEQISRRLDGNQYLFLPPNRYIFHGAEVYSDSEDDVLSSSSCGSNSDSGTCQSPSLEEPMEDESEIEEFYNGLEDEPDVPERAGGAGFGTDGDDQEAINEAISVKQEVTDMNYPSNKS
To be noted: SIRT1 preincubated with NAD+ and compound, means ± SD, cited from earlier work.

For series [2], the system named is sirtuin. To be noted: cited from earlier work; for % Activity at 50 μM / % Activity at 500 μM: residual enzyme activity relative to control with no inhibitor; for IC50: analogs of compound 12.

Regarding `N#CCC(=O)NCCCC[C@H](NC(=O)OCc1ccccc1)C(=O)Nc1ccccc1` [2a], in series [1], the inhibition (in general, the change of the read-out against control, counted positive when it falls) at 300 μM (%) is given as 50 ± 7.9%. Take `O=C(CC(F)(F)F)NCCCC[C@H](NC(=O)OCc1ccccc1)C(=O)Nc1ccccc1` [2b]: in series [1], the “inhibition at 300 μM (%)” value is recorded as 44 ± 17% and the IC50 – broadly, the point on the concentration scale where inhibition reaches its midpoint – was above 300 µM. As for `CSCC(=O)NCCCC[C@H](NC(=O)OCc1ccccc1)C(=O)Nc1ccccc1` [2c], in series [1], the “inhibition at 300 μM (%)” value is 32 ± 20% and the IC50 is above 300 µM. Take `C[S+]([O-])CC(=O)NCCCC[C@H](NC(=O)OCc1ccccc1)C(=O)Nc1ccccc1` (some centres unmarked) [2d]: in series [1], the “inhibition at 300 μM (%)” value is 46 ± 3.0% and the IC50 is above 300 µM.

In the case of `CS(=O)(=O)CC(=O)NCCCC[C@H](NC(=O)OCc1ccccc1)C(=O)Nc1ccccc1` [2e], the “inhibition at 300 μM (%)” value in series [1] is 56 ± 1.9%. As for `O=C(Cc1ccccc1C(F)(F)F)NCCCC[C@H](NC(=O)OCc1ccccc1)C(=O)Nc1ccccc1` [2f], in series [1], the “inhibition at 300 μM (%)” value is recorded as 49 ± 13% and the IC50 was above 300 µM. As to `O=C(Cc1ccc(C(F)(F)F)cc1)NCCCC[C@H](NC(=O)OCc1ccccc1)C(=O)Nc1ccccc1` [2g], in series [1], the “inhibition at 300 μM (%)” value was 41 ± 20% and the IC50 was above 300 µM. Consider `O=C(Cc1ccccc1[N+](=O)[O-])NCCCC[C@H](NC(=O)OCc1ccccc1)C(=O)Nc1ccccc1` [2h], for which, in series [1], the “inhibition at 300 μM (%)” value was 40 ± 12% and the IC50 was above 300 µM.

In the case of `O=C(Cc1ccc([N+](=O)[O-])cc1)NCCCC[C@H](NC(=O)OCc1ccccc1)C(=O)Nc1ccccc1` [2i], the “inhibition at 300 μM (%)” value in series [1] was 51 ± 17%. Regarding `COC(=O)CC(=O)NCCCC[C@H](NC(=O)OCc1ccccc1)C(=O)Nc1ccccc1` [2j], in series [1], the “inhibition at 300 μM (%)” value is 92 ± 1.2% and the IC50 was 35 ± 5.2 µM. Regarding `CCOC(=O)CC(=O)NCCCC[C@H](NC(=O)OCc1ccccc1)C(=O)Nc1ccccc1` [2k], in series [1], the “inhibition at 300 μM (%)” value is given as 91 ± 1.3% and the IC50 is 3.9 ± 0.29 µM.

As to `CCCOC(=O)CC(=O)NCCCC[C@H](NC(=O)OCc1ccccc1)C(=O)Nc1ccccc1` [2l], in series [1], the “inhibition at 300 μM (%)” value was 71 ± 0.72% and the IC50 was 62 ± 3.7 µM.

For the compound `CC(C)OC(=O)CC(=O)NCCCC[C@H](NC(=O)OCc1ccccc1)C(=O)Nc1ccccc1` [2m], in series [1], the “inhibition at 300 μM (%)” value is 72 ± 5.1% and the IC50 was 47 ± 5.3 µM. Turning to `CCCCOC(=O)CC(=O)NCCCC[C@H](NC(=O)OCc1ccccc1)C(=O)Nc1ccccc1` [2n], in series [1], the “inhibition at 300 μM (%)” value is 64 ± 6.1% and the IC50 is 73 ± 3.2 µM.

For `CC(C)(C)OC(=O)CC(=O)NCCCC[C@H](NC(=O)OCc1ccccc1)C(=O)Nc1ccccc1` [2o], in series [1], the “inhibition at 300 μM (%)” value was 6.0 ± 0.64% and the half-inhibitory concentration (IC50) was above 300 µM. On to `O=C(CC(=O)OCC1CC1)NCCCC[C@H](NC(=O)OCc1ccccc1)C(=O)Nc1ccccc1` [2p], for which, in series [1], the “inhibition at 300 μM (%)” value is reported as 93 ± 1.2% and the IC50 is 14 ± 2.6 µM. As to `O=C(CC(=O)OCC(F)(F)F)NCCCC[C@H](NC(=O)OCc1ccccc1)C(=O)Nc1ccccc1` [2q], in series [1], the “inhibition at 300 μM (%)” value was 94 ± 1.5% and the IC50 is 15 ± 3.1 µM. Take `O=C(CC(=O)OCc1ccccc1)NCCCC[C@H](NC(=O)OCc1ccccc1)C(=O)Nc1ccccc1` [2r]: in series [1], the “inhibition at 300 μM (%)” value is recorded as 71 ± 4.3% and the IC50 was 96 ± 4.8 µM. On to `NC(=O)CC(=O)NCCCC[C@H](NC(=O)OCc1ccccc1)C(=O)Nc1ccccc1` [2s], for which, in series [1], the “inhibition at 300 μM (%)” value is on record as 25 ± 2.3% and the half-maximal inhibitory concentration (IC50) was above 300 µM. Turning to `CNC(=O)CC(=O)NCCCC[C@H](NC(=O)OCc1ccccc1)C(=O)Nc1ccccc1` [2t], in series [1], the “inhibition at 300 μM (%)” value is recorded as 24 ± 2.5% and the IC50 is above 300 µM. Regarding `CN(C)C(=O)CC(=O)NCCCC[C@H](NC(=O)OCc1ccccc1)C(=O)Nc1ccccc1` [2u], in series [1], the “inhibition at 300 μM (%)” value is on record as 20 ± 1.3% and the IC50 is above 300 µM. For the compound `CC(=O)CC(=O)NCCCC[C@H](NC(=O)OCc1ccccc1)C(=O)Nc1ccccc1` [2v], in series [1], the “inhibition at 300 μM (%)” value is 45 ± 6.0% and the IC50 is above 300 µM. For the compound `CCC(=O)CC(=O)NCCCC[C@H](NC(=O)OCc1ccccc1)C(=O)Nc1ccccc1` [2w], in series [1], the “inhibition at 300 μM (%)” value is recorded as 67 ± 1.2% and the half-maximal inhibitory concentration (IC50) was 88 ± 3.9 µM. Take `CCCC(=O)CC(=O)NCCCC[C@H](NC(=O)OCc1ccccc1)C(=O)Nc1ccccc1` [2x]: in series [1], the “inhibition at 300 μM (%)” value was 78 ± 5.2%. On to `O=C(CC(=O)C(F)(F)F)NCCCC[C@H](NC(=O)OCc1ccccc1)C(=O)Nc1ccccc1` [2y], for which, in series [1], the “inhibition at 300 μM (%)” value is listed as 7.9 ± 0.92% and the IC50 was above 300 µM.

Turning to `O=C(CC(=O)c1ccccc1)NCCCC[C@H](NC(=O)OCc1ccccc1)C(=O)Nc1ccccc1` [2z], in series [1], the “inhibition at 300 μM (%)” value was 37 ± 7.4% and the IC50 was above 300 µM.

`C#CC1c2cc(O)c(OC)cc2CCN1C` (centres unmarked) [7-52]: in series [2], the “% Activity at 50 μM” value is reported as 100% and the “% Activity at 500 μM” value is recorded as 86%.

`COCC#CC1(C)c2cc(O)c(OC)cc2CCN1C` (centres unmarked) [7-123]: in series [2], the “% Activity at 50 μM” value is listed as 100% and the “% Activity at 500 μM” value is recorded as 100%.

Turning to `COCCCC1c2cc(O)c(OC)cc2CCN1C` (centres unmarked) [7-128], in series [2], the “% Activity at 50 μM” value was 99% and the “% Activity at 500 μM” value was 92%. As for `COC/C=C\C1c2cc(O)c(OC)cc2CCN1C` (centres unmarked) [7-129], in series [2], the “% Activity at 50 μM” value is given as 97% and the “% Activity at 500 μM” value is on record as 94%. Regarding `COc1cc2c(cc1O)CN(C)CC2` [7-133], in series [2], the “% Activity at 50 μM” value was 100% and the “% Activity at 500 μM” value was 98%.

For `COCC#CC1c2cc(O)c(OC)cc2CCN1Cc1ccc(OC)cc1` (centres unmarked) [Compound 14b], in series [2], the “% Activity at 50 μM” value is 92% and the “% Activity at 500 μM” value is listed as 2%. Regarding `C[S+]([O-])CCC(C(=O)O)N1C(=O)c2ccccc2C1=O` (centres unmarked) [compound 00032], in series [2], the concentration for half-maximal inhibition (IC50) result was “No inhibition”. With `CC(C)C(=O)CCN1C(=O)c2ccccc2C1=O` [compound 04265], the IC50 result in series [2] is given as “No inhibition”. Regarding `O=C(O)CCN1C(=O)c2cc(Cl)c(Cl)cc2C1=O` [compound 39008], in series [2], the IC50 entry is given as “No inhibition”. As to `Nc1ccc2c(c1)C(=O)N(CCC(=O)O)C2` [compound 42071], the half-inhibitory concentration (IC50) result in series [2] is “No inhibition”. `O=C(O)CCCN1C(=O)c2ccccc2C1=O` [compound 47032]: the IC50 result in series [2] is “No inhibition”. With `O=C(O)CCN1C(=O)c2ccc(-c3nc4ccccc4c(=O)o3)cc2C1=O` [compound 47054], the IC50 result in series [2] is listed as “No inhibition”. Consider `Nc1cccc(Cc2cccc(N)c2)c1` [compound 56413], for which, in series [2], the “% Activity at 50 μM” value was 100% and the “% Activity at 500 μM” value is 100%. Regarding `Oc1ccc(Cc2ccccc2)cc1` [compound 72030], in series [2], the “% Activity at 50 μM” value is recorded as 100% and the “% Activity at 500 μM” value is 88%.

For the compound `O=C1c2ccccc2C(=O)N1CCBr` [compound 91032], the IC50 result in series [2] is “No inhibition”.

As for `OC(c1ccccc1)c1ccc(C(F)(F)F)cc1` (centres unmarked) [compound 97211], in series [2], the “% Activity at 50 μM” value is 100% and the “% Activity at 500 μM” value is given as 81%. Turning to `Cc1cc(Cc2cc(C)c(O)c(C)c2)cc(C)c1O` [compound 97252], in series [2], the “% Activity at 50 μM” value was 89% and the “% Activity at 500 μM” value is 43%. On to `Cc1cccc(OCC(=O)Oc2ccc3c(C)cc(=O)oc3c2)c1` [compound 5140108], for which, in series [2], the “% Activity at 50 μM” value is 90% and the “% Activity at 500 μM” value was 13%.

On to `Cc1cc(=O)oc2cc(OC(=O)COc3ccccc3)ccc12` [compound 5237467], for which, in series [2], the “% Activity at 50 μM” value is 91% and the “% Activity at 500 μM” value is listed as 45%. Turning to `Cc1cc(=O)oc2cc(OC(=O)CCCOc3ccc(Cl)cc3Cl)ccc12` [compound 5366302], in series [2], the “% Activity at 50 μM” value is 90% and the “% Activity at 500 μM” value is 68%.

With `CCc1ccc(OCCCC(=O)Oc2ccc3c(C)cc(=O)oc3c2)cc1` [compound 6802623], in series [2], the “% Activity at 50 μM” value was 86% and the “% Activity at 500 μM” value is listed as 53%. `Cc1ccc(OCCCC(=O)Oc2ccc3c(C)cc(=O)oc3c2)cc1` [compound 6836332]: in series [2], the “% Activity at 50 μM” value was 99% and the “% Activity at 500 μM” value was 57%.

`COc1ccc(OCCCC(=O)Oc2ccc3c(C)cc(=O)oc3c2)cc1` [compound 6959933]: in series [2], the “% Activity at 50 μM” value is on record as 93% and the “% Activity at 500 μM” value is 35%. As to `Cc1ccc(OCCCC(=O)Oc2ccc3c(C)cc(=O)oc3c2)c(C)c1` [compound 7988362], in series [2], the “% Activity at 50 μM” value was 90% and the “% Activity at 500 μM” value is listed as 51%.
